# “And” between values parts separate entries of the source, which are not always exact repeats. Equal values may be shown once. Marks after values point to notes of the source that are not given here.
# Test: Strength and degradation profile of tigecycline 20 mg/mL bulk solutions by reversed phase HPLC (effect of temperature, time, pH, dissolved oxygen; Runs A to O)
# Type: physicochemical
# Conditions: 20 mg/mL
# Procedure: The contents of the sample vials are dissolved in diluent. The sample solution is diluted, if necessary, and chromatographed on a reversed phase column using gradient elution. Impurities are determined by comparing the impurity peak areas in the sample preparation chromatogram to the average area of tigecycline peaks in the standard preparation chromatograms obtained concomitantly.
# Chromatographic Column—Length about 15 cm, inside diameter about 4.6 mm, packed with Inertsil ODS2, 5 μm size particles or equivalent.
# Detector—Ultraviolet spectrophotometric detector capable of operating at 248 nm with a sensitivity of about 0.5 absorbance units full scale.
# The results of additional studies to investigate the effect of processing parameters such as temperature, time, and dissolved oxygen content on the purity profile of tigecycline solutions using the following materials, methods and procedures are presented in Tables A to O.
# The experiments were run in plastic glove bags under normal laboratory light conditions. Plastic glove boxes will be used to control the headspace of the beakers. The batch size was 200 mL. • 1. Prepare the glove bag with a mixture of nitrogen and air to achieve an oxygen level in the solution as per the design. • 2. Place the jacketed beaker on the magnetic stirrer. Connect it to the cooler. Set the cooler to the desired set point. • 3. Add 200 mL of SWFI in to the beaker. Allow equilibrating. Measure the temperature and oxygen content. When it reaches the desired condition, add accurately weighed API and mix until dissolved. If necessary use spatula to aid dissolution. For pH adjustments, use 4 mL of either 0.1N NaOH or 0.1N HCl and 196 mL of WFI for manufacture. • 4. After complete dissolution, Transfer about 5.5 mL of Solution in vials and stopper them. These vials will be stoppered at the appropriate headspace conditions. Place the vials in appropriate temperature conditions. • 5. Sample the vials at 1, 4, 8, 10, 12 and 24 hours. Send the samples for analysis. Freeze the 10, 12 and 24 samples at −20° C. for analysis the following day. • 6. Measure pH and record color of the solution at each time point. Results
# The 1-hour samples were taken directly from the beakers. Samples for later time points were collected in stoppered vials processed in the atmosphere of the bag in order to simulate the headspace conditions then placed in water baths or refrigerator to maintain there respective temperature conditions. This was done to maintain safety in the lab. Disposable plastic glove bags require constant flow of a mixture of nitrogen and air to maintain headspace oxygen level that will result in the desired dissolved oxygen (DO) content in the sample. The pH of samples was measured at each sample points.
# Strength and degradation profile was analyzed by HPLC as described above. […] Degradation was slightly higher at higher temperature condition.
# [1] = Run #D, 8° C., pH 7.7, Oxygen 2.0 mg/L, hours 1,4,8,10,12,24 at r6-r11, after 4 hours
# [2] = Run #D, 8° C., pH 7.7, Oxygen 2.0 mg/L, hours 1,4,8,10,12,24 at r6-r11, after 8 hours
# [3] = Run #D, 8° C., pH 7.7, Oxygen 2.0 mg/L, hours 1,4,8,10,12,24 at r6-r11, after 10 hours
# [4] = Run #D, 8° C., pH 7.7, Oxygen 2.0 mg/L, hours 1,4,8,10,12,24 at r6-r11, after 12 hours
# [5] = Run #D, 8° C., pH 7.7, Oxygen 2.0 mg/L, hours 1,4,8,10,12,24 at r6-r11, after 24 hours
# [6] = Run #D, 8° C., pH 7.7, Oxygen 2.0 mg/L, hours 1,4,8,10,12,24 at r17-r22, after 1 hours
# [7] = Run #D, 8° C., pH 7.7, Oxygen 2.0 mg/L, hours 1,4,8,10,12,24 at r17-r22, after 4 hours
# [8] = Run #D, 8° C., pH 7.7, Oxygen 2.0 mg/L, hours 1,4,8,10,12,24 at r17-r22, after 8 hours
# [9] = Run #D, 8° C., pH 7.7, Oxygen 2.0 mg/L, hours 1,4,8,10,12,24 at r17-r22, after 10 hours
# [10] = Run #D, 8° C., pH 7.7, Oxygen 2.0 mg/L, hours 1,4,8,10,12,24 at r17-r22, after 12 hours
# [11] = Run #D, 8° C., pH 7.7, Oxygen 2.0 mg/L, hours 1,4,8,10,12,24 at r17-r22, after 24 hours
# [12] = Run #E, 5° C., Oxygen = 2.0 mg/mL, hours 1,4,8,12,24 at r6-r10
# [13] = Run #E, 5° C., Oxygen = 2.0 mg/mL, hours 1,4,8,12,24 at r16-r20, 1 hours
# [14] = Run #E, 5° C., Oxygen = 2.0 mg/mL, hours 1,4,8,12,24 at r16-r20, 4 hours
# [15] = Run #E, 5° C., Oxygen = 2.0 mg/mL, hours 1,4,8,12,24 at r16-r20, 8 hours
# [16] = Run #E, 5° C., Oxygen = 2.0 mg/mL, hours 1,4,8,12,24 at r16-r20, 12 hours
# [17] = Run #E, 5° C., Oxygen = 2.0 mg/mL, hours 1,4,8,12,24 at r16-r20, 24 hours
# [18] = Run #F, 2° C., hours 1,4,8,12,24 at r5-r9, 1 h after preparation
# [19] = Run #F, 2° C., hours 1,4,8,12,24 at r5-r9, 4 h after preparation
smiles,measurement,setting,value
CN(C)c1cc(NC(=O)CNC(C)(C)C)c(O)c2c1C[C@H]1C[C@H]3[C@H](N(C)C)C(O)=C(C(N)=O)C(=O)[C@@]3(O)C(O)=C1C2=O [Tigecycline],Strength,"Run #D, 8° C., pH 7.7, Oxygen 2.0 mg/L, hours 1,4,8,10,12,24 at r6-r11, after 1 hours",19.168 mg/mL
same,RRT 0.55 MW = 583,[1],0.16%
same,RRT 0.74 Epimer,[1],0.18%
same,Strength,[1],18.918 mg/mL
same,RRT 0.55 MW = 583,[2],0.23%
same,Strength,[2],18.915 mg/mL
same,RRT 0.55 MW = 583,[3],0.27%
same,RRT 0.74 Epimer,[3],0.25%
same,Strength,[3],19.292 mg/mL
same,RRT 0.55 MW = 583,[4],0.29%
same,RRT 0.74 Epimer,[4],0.24%
same,Strength,[4],18.728 mg/mL
same,RRT 0.55 MW = 583,[5],0.36%
same,RRT 0.74 Epimer,[5],0.27%
same,Strength,[5],18.050 mg/mL
same,RRT 1.45,[6],0.07%
same,RRT 1.67 MW = 556,[6],0.10%
same,RRT 1.85 MW = 597,[6],0.08%
same,Total,[6],0.65%
same,RRT 1.45,[7],0.19%
same,RRT 1.67 MW = 556,[7],0.21%
same,Total,[7],1.09%
same,RRT 1.45,[8],0.06%
same,RRT 1.67 MW = 556,[8],0.37%
same,RRT 1.85 MW = 597,[8],0.14%
same,Total,[8],1.57%
same,RRT 1.67 MW = 556,[9],0.24%
same,Total,[9],2.27%
same,RRT 1.45,[10],0.10%
same,RRT 1.67 MW = 556,[10],0.28%
same,RRT 1.85 MW = 597,[10],0.09%
same,Total,[10],2.47%
same,RRT 1.67 MW = 556,[11],0.51%
same,RRT 1.85 MW = 597,[11],0.10%
same,Total,[11],4.32%
same,RRT 0.55 MW = 583,[12],0.43% and 0.07% and 0.17% and 0.22% and 0.33%
same,Strength,[12],17.950 mg/mL and 19.261 mg/mL and 19.215 mg/mL and 18.970 mg/mL and 18.475 mg/mL
same,RRT 0.58,[13],0.08%
same,RRT 0.74 Epimer,[13],0.16%
same,RRT 0.76,[13],0.05%
same,RRT 1.45,[13],0.08%
same,RRT 1.85 MW = 597,[13],0.08%
same,Total,[13],0.67%
same,RRT 0.58,[14],0.07%
same,RRT 0.74 Epimer,[14],0.17%
same,RRT 1.85 MW = 597,[14],0.07%
same,Total,[14],0.96%
same,RRT 0.74 Epimer,[15],0.19%
same,RRT 0.76,[15],0.11%
same,RRT 1.45,[15],0.10%
same,RRT 1.85 MW = 597,[15],0.09%
same,Total,[15],1.58%
same,RRT 0.74 Epimer,[16],0.24%
same,RRT 0.76,[16],0.12%
same,RRT 1.85 MW = 597,[16],0.11%
same,Total,[16],3.15%
same,RRT 0.58,[17],0.05%
same,RRT 0.74 Epimer,[17],0.28%
same,RRT 0.76,[17],0.13%
same,RRT 1.45,[17],0.07%
same,RRT 1.85 MW = 597,[17],0.12%
same,Total,[17],4.23%
same,RRT 1.67 MW = 556,"Run #E, 5° C., Oxygen = 2.0 mg/mL, hours 1,4,8,12,24 at r16-r20, at 24 h Mino is co-eluting, 1 hours",0.08%
same,RRT 1.67 MW = 556,"Run #E, 5° C., Oxygen = 2.0 mg/mL, hours 1,4,8,12,24 at r16-r20, at 24 h Mino is co-eluting, 4 hours",0.16%
same,RRT 1.67 MW = 556,"Run #E, 5° C., Oxygen = 2.0 mg/mL, hours 1,4,8,12,24 at r16-r20, at 24 h Mino is co-eluting, 8 hours",0.26%
same,RRT 1.67 MW = 556,"Run #E, 5° C., Oxygen = 2.0 mg/mL, hours 1,4,8,12,24 at r16-r20, at 24 h Mino is co-eluting, 12 hours",0.39%
same,RRT 1.67 MW = 556,"Run #E, 5° C., Oxygen = 2.0 mg/mL, hours 1,4,8,12,24 at r16-r20, at 24 h Mino is co-eluting, 24 hours",0.44^a %
same,Strength,"Run #F, 2° C., Oxygen = 1.0 mg/mL, hours 1,4,8,12,24 at r5-r9, 1 h after preparation",18.733 mg/mL
same,Strength,"Run #F, 2° C., Oxygen = 1.0 mg/mL, hours 1,4,8,12,24 at r5-r9, 4 h after preparation",18.700 mg/mL
same,Strength,"Run #F, 2° C., Oxygen = 1.0 mg/mL, hours 1,4,8,12,24 at r5-r9, 8 h after preparation",18.729 mg/mL
same,Strength,"Run #F, 2° C., Oxygen = 1.0 mg/mL, hours 1,4,8,12,24 at r5-r9, 12 h after preparation",18.543 mg/mL
same,Strength,"Run #F, 2° C., Oxygen = 1.0 mg/mL, hours 1,4,8,12,24 at r5-r9, 24 h after preparation",18.818 mg/mL
same,RRT 0.58,[18],0.08%
same,RRT 0.74 Epimer,[18],0.15%
same,RRT 1.45,[18],0.07%
same,RRT 1.64 Mino,[18],0.10%
same,RRT 1.85 MW = 597,[18],0.07%
same,Total,[18],0.47%
same,RRT 0.58,[19],0.07%
same,RRT 0.74 Epimer,[19],0.16%
same,RRT 1.64 Mino,[19],0.09%
same,RRT 1.85 MW = 597,[19],0.09%
same,Total,[19],0.71%
same,RRT 0.74 Epimer,"Run #F, 2° C., hours 1,4,8,12,24 at r5-r9, 8 h after preparation",0.17%
